From US9145392B2, “Imidazole amines as modulators of kinase activity” (Merck Patent GmbH, priority 2011, dated 2015)

Tests used:
P70S6K (T412E mutant) = P70S6K (T412E mutant) (Homo sapiens (Human), UniProt P23443, T412E); assay: P70S6K enzyme assay; type: biochemical; conditions: read-out: IC50 p70S6K
Summary of the method: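 Read-out is the substrate/phosphopeptide ratio from mobility-shift electrophoresis on a LabChip 3000.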

His-AKT (Full Length) = His-AKT (Full Length) (Homo sapiens (Human), UniProt P31749); assay: AKT enzyme assay; type: biochemical; conditions: read-out: IC50 AKT
Sequence of His-AKT (Full Length) (P31749 whole entry): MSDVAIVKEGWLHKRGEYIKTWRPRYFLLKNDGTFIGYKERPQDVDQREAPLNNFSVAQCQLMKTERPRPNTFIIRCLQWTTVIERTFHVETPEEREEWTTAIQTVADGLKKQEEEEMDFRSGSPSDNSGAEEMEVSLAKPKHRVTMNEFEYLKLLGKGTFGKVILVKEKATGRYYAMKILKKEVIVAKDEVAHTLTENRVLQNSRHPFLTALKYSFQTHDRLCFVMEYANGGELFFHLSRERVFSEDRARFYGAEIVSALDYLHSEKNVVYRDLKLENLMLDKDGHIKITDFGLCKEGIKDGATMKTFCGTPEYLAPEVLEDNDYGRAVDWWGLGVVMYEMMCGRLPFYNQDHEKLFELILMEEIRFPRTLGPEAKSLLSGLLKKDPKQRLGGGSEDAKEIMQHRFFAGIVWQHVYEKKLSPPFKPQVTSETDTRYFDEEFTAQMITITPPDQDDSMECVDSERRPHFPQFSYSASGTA

Sequence of P70S6K (T412E mutant) (P23443 whole entry T412E): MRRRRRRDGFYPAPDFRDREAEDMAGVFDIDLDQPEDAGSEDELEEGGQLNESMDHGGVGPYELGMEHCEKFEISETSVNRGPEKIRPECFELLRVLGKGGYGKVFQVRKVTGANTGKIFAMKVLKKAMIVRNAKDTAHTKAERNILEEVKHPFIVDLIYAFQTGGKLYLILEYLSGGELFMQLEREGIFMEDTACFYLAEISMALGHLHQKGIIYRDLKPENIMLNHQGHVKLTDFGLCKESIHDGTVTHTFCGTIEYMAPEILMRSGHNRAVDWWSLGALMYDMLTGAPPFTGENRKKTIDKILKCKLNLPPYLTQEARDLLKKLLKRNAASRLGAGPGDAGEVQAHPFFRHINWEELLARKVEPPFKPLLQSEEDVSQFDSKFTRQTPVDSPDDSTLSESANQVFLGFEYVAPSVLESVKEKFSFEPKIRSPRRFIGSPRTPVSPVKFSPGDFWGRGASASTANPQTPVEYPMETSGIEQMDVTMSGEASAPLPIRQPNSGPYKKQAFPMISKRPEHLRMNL

Row | Compound | IC50 (P70S6K (T412E mutant)) | IC50 (His-AKT (Full Length))
1 | CC(C)CNCCn1cc(-c2ccc(F)c(C(F)(F)F)c2)nc1C1CCN(c2ncnc(N)c2C#N)CC1 [Compound 372, 4-Amino-6-{4-[4-(4-fluoro-3-trifluoromethyl-phenyl)-1-(2-isobutylamino-ethyl)-1H-imidazol-2-yl]-piperidin-1-yl}-pyrimidine-5-carbonitrile] | 0.2 nM | 0.7 nM
2 | CC(C)Oc1c(N)ncnc1N1CCC(c2nc(-c3ccc(F)c(C(F)(F)F)c3)cn2CC2CNC2)CC1 [Compound 175, 6-(4-(1-(azetidin-3-ylmethyl)-4-(4-fluoro-3-(trifluoromethyl)phenyl)-1H-imidazol-2-yl)piperidin-1-yl)-5-isopropoxypyrimidin-4-amine] | 5.9 nM | 4.5 nM
3 | Cc1cc(-c2cn(CC3CN(CO)C3)c(C3CCN(c4ncnc(N)c4C(C)C)CC3)n2)ccc1F [Compound 399, {3-[2-[1-(6-Amino-5-isopropyl-pyrimidin-4-yl)-piperidin-4-yl]-4-(4-fluoro-3-methyl-phenyl)-imidazol-1-ylmethyl]-azetidin-1-yl}-methanol] | 2.5 nM | 56 nM
4 | Nc1ncnc(N2CCC(c3nc(-c4ccc(O)c(C(F)(F)F)c4)cn3CCN3CCCC3)CC2)c1Cl [Compound 210] | 3.7 nM | 3 nM
5 | Nc1ncnc(N2CCC(c3nc(-c4ccc(F)c(C(F)(F)F)c4)cn3CCN3CCC3)CC2)c1-c1cc[nH]c1 [Compound 110, 6-(4-(1-(2-(azetidin-1-yl)ethyl)-4-(4-fluoro-3-(trifluoromethyl)phenyl)-1H-imidazol-2-yl)piperidin-1-yl)-5-(1H-pyrrol-3-yl)pyrimidin-4-amine] | 0.7 nM | 1.9 nM
6 | NC(=O)c1c(N)ncnc1N1CCC(c2nc(-c3ccc(F)c(C(F)(F)F)c3)cn2C2CCNCC2)CC1 [Compound 154, 4-amino-6-(4-(4-(4-fluoro-3-(trifluoromethyl)phenyl)-1-(piperidin-4-yl)-1H-imidazol-2-yl)piperidin-1-yl)pyrimidine-5-carboxamide] | 3 nM | 480 nM
7 | CCc1c(N)ncnc1N1CCC(c2nc(-c3ccc(C(F)(F)F)c(F)c3)cn2CCN2CCC(F)(F)CC2)CC1 [Compound 247] | 5.5 nM | 520 nM
8 | Nc1ncnc(N2CCC(c3nc(-c4ccnc(C(F)(F)F)c4)cn3CCN3CCC3)CC2)c1Br [Compound 126, 6-(4-(1-(2-(azetidin-1-yl)ethyl)-4-(2-(trifluoromethyl)pyridin-4-yl)-1H-imidazol-2-yl)piperidin-1-yl)-5-bromopyrimidin-4-amine] | 0.5 nM | 2.2 nM
9 | Nc1ncnc(N2CCC(c3nc(-c4ccc(F)c(C(F)(F)F)c4)cn3CCN3CCCC3)CC2)c1C=O [Compound 287] | 0.6 nM | 1 nM
10 | CC(C)c1cc(-c2cn(CCN3CCC3)c(C3CCN(c4ncnc(N)c4Cl)CC3)n2)ccn1 [Compound 180, 6-(4-(1-(2-(azetidin-1-yl)ethyl)-4-(2-isopropylpyridin-4-yl)-1H-imidazol-2-yl)piperidin-1-yl)-5-chloropyrimidin-4-amine] | 1.1 nM | 2.4 nM
11 | N#Cc1c(N)ncnc1N1CCC(c2nc(-c3ccc(F)c(C(F)(F)F)c3)cn2CC2CNC2)CC1 [Compound 141, 4-amino-6-(4-(1-(azetidin-3-ylmethyl)-4-(4-fluoro-3-(trifluoromethyl)phenyl)-1H-imidazol-2-yl)piperidin-1-yl)pyrimidine-5-carbonitrile] | 13 nM | 64.5 nM
12 | Nc1ncnc(N2CCC(c3nc(-c4ccc(F)c(C(F)(F)F)c4)cn3CCN3CCCCC3)CC2)c1-c1ccc(F)cc1 [Compound 62] | 18 nM | 350 nM
13 | CN(C)CCn1cc(-c2ccc(F)c(C(F)(F)F)c2)nc1C1CCN(c2ncnc(N)c2Br)CC1 [Compound 67, 5-Bromo-6-{4-[1-(2-dimethylamino-ethyl)-4-(4-fluoro-3-trifluoromethyl-phenyl)-1H-imidazol-2-yl]-piperidin-1-yl}-pyrimidin-4-ylamine] | 2.2 nM | 9.3 nM
